In assay [1] the test system is NLRP3 inflammasome pathway. Briefly: LPS-ATP induced peritonitis mouse model, IL-1β in peritoneal lavage. It is filed as in vivo, C57BL/6 female mice. The following applies: for % IL-1 beta inhibition vs vehicle (peritoneal lavage samples): mice, intraperitoneal 1 mg/kg or 3 mg/kg (dose not given), 15 min before ATP; for inhibition of IL-1β release in peritoneal lavage samples (FIG. 1): mice dosed 1 mg/kg or 3 mg/kg by intraperitoneal injection, n=6, p<0.0001 vs vehicle-treated group. On the procedure:
C57BL/6 female mice aged 6 to 8 weeks were randomized into experimental groups. Mice were challenged intraperitoneally with 50 µg/kg LPS. Two hours later, mice received i.p. 200 µL of ATP (Adenosine TriPhosphate) 50 mM, pH 7.2. Compounds were administered intraperitoneally at 1 mg/kg or 3 mg/kg, 15 minutes before ATP injection. Thirty minutes after ATP injection, animals were sacrificed by CO2. Cardiac blood was collected through heart puncture. Peritoneal lavage was performed with a total volume of 4 mL of sterile saline solution with intact peritoneum. IL-1b levels were assessed in peritoneal lavage samples via AlphaLisa. Results were expressed as % reduction compared to vehicle-treated group.
(§1) For IL-1β quantification, supernatants were analyzed using AlphaLISA kits according to the manufacturer’s instructions (Perkin Elmer AlphaLISA AL220F). Briefly, in a 384-well OptiPlate™ microplate, 5 µl of sample was mixed, with 20 µl of AlphaLISA Anti-Analyte Acceptor beads (10 µg/mL final) and Biotinylated Antibody Anti-Analyte (1 nM final). Then, incubated 60 minutes at RT, then 25 µL of 2X SA-Donor beads (40 µg/mL final) were added and incubated 30 minutes at RT in the dark. Reading was done using an EnVision-Alpha Reader (PerkinElmer).

Assay [2] concerns NLRP3 inflammasome pathway. Briefly: Human whole blood assay (LPS-ATP), IL-1β levels by AlphaLISA. The class given is cell-based. The following applies: LPS priming, ATP activation 1 h, IL-1β in plasma. On the procedure: • Preliminary blood hemolysis assessment was performed before running the assay. Blood samples were centrifuged at 1000 g for 10 min. Then, 50 to 100 µL of blood were transferred into Corning™96-Well Clear flat bottom plate. Hemolysis was assessed via Tecan at 414 nm wavelength. Hemolysis O.D. values should be lower than 1. • Add 10 µL LPS 9× or CTRL following plate layout. • Add 80 µL of each whole blood/well in PP low-bind 96-well plate. • Incubate for 2h30 to 3 h at 37° C. and 5% CO2. • Add 10 µL of compounds 10× or control in wells following plate layout. • Incubate for 30 min at 37° C. and 5% CO2. • Add 11 µL ATP 10× or control in all wells following plate layout. • Incubate for 1 h at 37° C. and 5% CO2. • Collect 1 h timepoint → Centrifuge the plate 1000 g 10 min, collect the plasma (40 to 50 µL) and store at -20° C. • Measure IL-1β levels by AlphaLISA
as §1
(§2) IC50(concentration corresponding to 50% inhibition) were determined using GraphPad Prism 8.

Assay [3] concerns NLRP3 inflammasome pathway. Briefly: NLRP3 inflammasome pathway activation assay, MSU stimulation, IL-1β release (AlphaLISA). The class given is cell-based. Particulars: PMA-differentiated, LPS-primed human monocyte-like cells, MSU 150 µg/ml for 3 h. On the procedure:
(§3) The following assays were used to determine the inhibitory activity of test compounds on the NLRP3 inflammasome pathway using common stimuli Nigericin (Invivogen) or monosodium urate crystals (MSU) (Invivogen).
(§4) Human monocyte-like cells were cultured in RPMI-1640 Glutamax medium supplemented with 10% heat inactivated FCS and 50 U/ml penicillin-streptomycin (Life Technologies).
(§5) Human monocyte-like cells were seeded at 75000 per well in a 96-well plate and were differentiated overnight into macrophages with 10 ng/ml PMA (Phorbol Myristate Acetate). The following day, medium containing 10 ng/ml LPS (Lipopolysaccharide) were added. After 3 hours of LPS priming, concentrations of test compound in the range from 100 µM to 6 nM were added 30 min prior to NLRP3 inflammasome pathway stimulation with Nigericin 3.75 µM or MSU 150 µg/ml for 3 h.
as §1, §2
A general note: Bead proximity is the source of the signal in Alpha formats.

In assay [4] the test system is NLRP3 inflammasome pathway. Nature of the assay: NLRP3 inflammasome pathway activation assay, Nigericin stimulation, IL-1β release (AlphaLISA). It is filed as cell-based. Particulars: PMA-differentiated, LPS-primed human monocyte-like cells, Nigericin 3.75 µM for 3 h. How it is done:
as §3, §4, §5, §1, §2

The IC50 is the concentration needed to halve the response being measured. A higher IC50 goes with weaker potency in that assay. `CCOC(=O)C1(c2ccon2)CN=C(Nc2c3c(cc4c2CCC4)CCC3)O1` (single isomer, unassigned) [Example 21Bb]: the “% IL-1 beta inhibition vs vehicle (peritoneal lavage samples)” value (“% IL-1 beta inhibition vs vehicle” for short) in assay [1] turned out to be 73%. Further, the IC50 in assay [2] and in assay [3] was less than 1000 nM each time.

As to `CC(C)OC(=O)C1(c2ccon2)CN=C(Nc2c3c(cc4c2CCC4)CCC3)O1` (single isomer, unassigned) [Example 59, isopropyl 2-((1,2,3,5,6,7-hexahydro-s-indacen-4-yl)amino)-5-(isoxazol-3-yl)-4,5-dihydrooxazole-5-carboxylate], the values for the IC50 in assay [2] and in assay [3] were 1000 to 10000 nM and less than 1000 nM, respectively.

Turning to `O=C(OC1CCCC1)C1(c2ccon2)CN=C(Nc2c3c(cc4c2CCC4)CCC3)O1` (stereo not shown) [Example 58, Cyclopentyl 2-((1,2,3,5,6,7-hexahvdro-s-indacen-4-vl)amino)-5-(isoxazol-3-yl)-4,5-dihydrooxazole-5-carboxylate], the IC50 in assay [2] was 1000 to 10000 nM; in assay [3], less than 1000 nM.

`CC(C)(O)c1cc(C2(C(=O)O)CN=C(Nc3c4c(cc5c3CCC5)CCC4)O2)no1` (stereo not shown) [Example 23, 2-((1,2,3,5,6,7-hexahydro-s-indacen-4-yl)amino)-5-(5-(2-hydroxypropan-2-yl)isoxazol-3-yl)-4,5-dihydrooxazole-5-carboxylic acid]: the IC50 in assay [4] was less than 1000 nM. Besides, in assay [1], the “inhibition of IL-1β release in peritoneal lavage samples (FIG. 1)” value is reported as “significant inhibition” and the “% IL-1 beta inhibition vs vehicle” value is recorded as more than 99%. In addition, in assay [2], the IC50 is 1000 to 10000 nM.

For the compound `O=C(O)C1(c2ccon2)CN=C(Nc2c3c(cc4c2CCC4)CCC3)O1` (stereo not shown) [Example 29, 2-((1,2,3,5,6,7-hexahydro-s-indacen-4-yl)amino)-5-(isoxazol-3-yl)-4,5-dihydrooxazole-5-carboxylate], the half-maximal inhibitory concentration (IC50) is 1000 to 10000 nM in assay [2] and less than 1000 nM in assay [3].

For the compound `CC(C)(C)OC(=O)C1(c2ccno2)CN=C(Nc2c3c(cc4c2CCC4)CCC3)O1` (racemic) [Example 90, tert-butyl 2-((1,2,3,5,6,7-hexahydro-s-indacen-4-yl)amino)-5-(isoxazol-5-yl)-4,5-dihydrooxazole-5-carboxylate], the IC50 in assay [4] (Homo sapiens, 3 h) was less than 1000 nM; in assay [3], 1000 to 10000 nM.

On to `CCOC(=O)C1(c2cccc(Cl)c2)CN=C(Nc2c3c(cc4c2CCC4)CCC3)O1` (stereo not shown) [Example 13, Ethyl 5-(3-chlorophenyl)-2-((1,2,3,5,6,7-hexahydro-s-indacene-4-yl)amino)-4,5-dihvdrooxazole-5-carboxylate], for which the IC50 in assay [4] (Homo sapiens, 3 h) was less than 1000 nM; in assay [3] it was less than 1000 nM.

As to `CCOC(=O)C1(c2ccccc2)CN=C(Nc2c3c(cc4c2CCC4)CCC3)O1` (stereo not shown) [Example 2, Ethyl 2-((1,2,3,5,6,7-hexahydro-s-indacen-4-yl)amino)-5-phenyl-4,5-dihvdrooxazole-5-carboxylate], the IC50 in assay [4] and in assay [3] was 1000 to 10000 nM in each case.

As for `CCOC(=O)C1(c2nccn2C)CN=C(Nc2c3c(cc4c2CCC4)CCC3)O1` (single isomer, unassigned) [Example 5, Ethyl 2-((1,2,3,5,6,7-hexahydro-s-indacen-4-yl)amino)-5-(1-methyl-1H-imidazol-2-yl)-4,5-dihydrooxazole-5-carboxylate], the IC50 in assay [4] and in assay [3] was less than 1000 nM in each case.

`CCOC(=O)C1(c2ncccn2)CN=C(Nc2c3c(cc4c2CCC4)CCC3)O1` (racemic) [Example 50, ethyl 2-((1,2,3,5,6,7-hexahydro-s-indacen-4-yl)amino)-5-(pyrimidin-2-yl)-4,5-dihydrooxazole-5-carboxylate]: the half-maximal inhibitory concentration (IC50) in assay [4] (Homo sapiens, 3 h) was less than 1000 nM; in assay [3], 1000 to 10000 nM.

With `CCOC(=O)C1(c2cccnc2)CN=C(Nc2c3c(cc4c2CCC4)CCC3)O1` (single isomer, unassigned) [Example 11, Ethyl 2-((1,2,3,5,6,7-hexahydro-s-indacen-4-yl)amino)-5-(pyridin-3-yl)-4,5-dihydrooxazole-5-carboxylate], the IC50 in assay [4] and in assay [3] was less than 1000 nM throughout.

Turning to `O=C(O)C1(c2nccs2)CN=C(Nc2c3c(cc4c2CCC4)CCC3)O1` (stereo not shown) [Example 24, 2-((1,2,3,5,6,7-hexahydro-s-indacen-4-yl)amino)-5-(thiazol-2-yl)-4,5-dihydrooxazole-5-carboxylic acid], the IC50 in assay [2] and in assay [3] was 1000 to 10000 nM in each case.

For `CCOC(=O)C1(c2cc(C(C)(C)O)on2)CN=C(Nc2c3c(cc4c2CCC4)CCC3)O1` (single isomer, unassigned) [Example 16, Ethyl 2-((1,2,3,5,6,7-hexahydro-s-indacen-4-yl)amino)-5-(5-(2-hydroxypropan-2-yl)isoxazol-3-yl)-4,5-dihydrooxazole-5-carboxylate], the IC50 in assay [4], in assay [2] and in assay [3] was less than 1000 nM throughout. For the same compound, the “inhibition of IL-1β release in peritoneal lavage samples (FIG. 1)” value in assay [1] is “significant inhibition”. Moreover, in assay [1], the “% IL-1 beta inhibition vs vehicle” value amounted to 99%.

“2-((1,2,3,5,6,7-hexahydro-s-indacen-4-yl)amino)-5-(5-isopropylisoxazol-3-yl)-4,5-dihydrooxazole-5-carboxylate [Example 28]”: the IC50 was 1000 to 10000 nM in assay [4] and less than 1000 nM in assay [3].
